In patent US20080299542A1, “IDENTIFICATION OF OXIDATIVELY MODIFIED PEPTIDE SEQUENCES IN THE PROTEOME (LOSCALZO)” (priority 2007, published 2008):
Entries after “also recorded” stand apart in the source; their conditions may differ.

Legend:
[1] = tested on: EGFR; test: EGF uptake and EGF-induced EGFR phosphorylation; format: cell-based; conditions: Chang liver cells
Experimental: (§1) Surface receptor functional assessment: After treatment, cells was incubated with 500 ng/ml Alexa 488-labeled EGF in DMEM containing 1% BSA, 50 μg/ml Alexa-488-labeled transferrin for 10 min, or 10 μg/ml Alexa 488-labeled AcLDL for 30 min in growth medium, and then washed with cold HBSS four times before fixation with formaldehyde at room temperature. Cells were also trypsinzed and ligand uptake quantified by flow cytometry (FACS Calibur). For protein phosphorylation studies, cell lysates were also collected 5 min after stimulation with ligands. Western blotting and indirect immunofluorescence: Cells were lysed in cell lysis buffer (Cell Signaling, Danvers, Mass.). Lysate protein concentration was measured by the Biorad DC protein assay. Equal amounts of proteins were separated by MOPS-SDS-PAGE, then transferred to poly(vinylidene difluoride) membranes (Invitrogen, Carlsbad, Calif.). Membranes were then blocked and the signal detected with a BM Chemiluminescence Blotting kit (Roche Diagnostics, Basel, Switzerland), BM POD precipitating blotting substrate (Roche Diagnostics, Basel, Switzerland), or Supersignal West Femto blotting kit (Pierce, Rockford, Ill.) according to the manufacturer's instructions. […] For indirect immunofluorescence studies, formaldehyde-fixed cells were permeablized with 0.3% Triton for 10 min, blocked with 1% BSA for 30 min, then detected with antibodies. […]

[2] = tested on: IGF-1R; test: IGF-1-induced IGF-1R phosphorylation; format: cell-based; conditions: in the presence of 0.3 mM DTT; Chang liver cells; FIG. 8c
Experimental: as §1

[3] = tested on: LOX-1; test: acetylated LDL (AcLDL) uptake by HPAECs; format: cell-based, human; conditions: for uptake of acetylated LDL (AcLDL) by HPAECs: mitochondrial inhibitors for 8 hr, FIG. 5
Experimental: (§2) Surface receptor functional assessment: After treatment, cells was incubated with 500 ng/ml Alexa 488-labeled EGF in DMEM containing 1% BSA, 50 μg/ml Alexa-488-labeled transferrin for 10 min, or 10 μg/ml Alexa 488-labeled AcLDL for 30 min in growth medium, and then washed with cold HBSS four times before fixation with formaldehyde at room temperature. Cells were also trypsinzed and ligand uptake quantified by flow cytometry (FACS Calibur). For protein phosphorylation studies, cell lysates were also collected 5 min after stimulation with ligands.

[4] = tested on: FGFR; test: bFGF-induced FGFR phosphorylation; format: cell-based; conditions: in the presence of 0.3 mM DTT; Chang liver cells; FIG. 8d
Experimental: as §1

[5] = tested on: CD71; test: transferrin uptake (mediated by CD71) by HPAECs; format: cell-based, human; conditions: 0.5 mM DTT, 30 min, flow cytometry
Experimental: as §2

[6] = tested on: protein disulfides in BAECs; test: in situ fluorescence imaging of cellular protein disulfides (BAECs); format: cell-based, Bovine; conditions: for protein disulfide formation: BAECs, mitochondrial inhibitors, FIG. 1b
Experimental: (§3) Detection of cellular disulfide-containing proteins: We developed a method for imaging disulfide-containing proteins in situ. Methanol-fixed cells were treated with 200 mM iodoacetamide in 100 mM Tris, pH 8.3, 5 mM EDTA at 37° C. for 1 hour to block thiols. The cells were then washed six times with Tris-buffered saline, pH 8.0, 5 mM EDTA, after which they were incubated with 5 mM EDTA, 1 mM tris(2-carboxyethyl) phosphine, pH 8.3, at room temperature to reduce disulfides and with 1 mM 5-iodoacetamidofluorescein (5-IAF) in 100 mM Tris to label the resulting thiols for 1 hour. Excess dye was removed by washing the cells repeatedly with TBS. Stained cells fixed to slides were then treated with Prolonged Antifade Mounting Medium, and cell nuclei were counterstained with DAPI. Fluorescent images were taken with a Nikon fluorescence TE 2000 microscope. Fluorescence intensity was quantified by subtracting background fluorescence, then integrating the image with the NIH IMAGEJ program and normalizing by cell number as determined by DAPI fluorescence. Four fields magnified×20 were analyzed per experiment, with 100-200 cells counted per sample.

[7] = tested on: vWF; test: multimeric vWF immunoblot / immunofluorescence in HPAECs; format: cell-based, human; conditions: FIG. 1i
Experimental: (§4) Western blotting and indirect immunofluorescence: Cells were lysed in cell lysis buffer (Cell Signaling, Danvers, Mass.). Lysate protein concentration was measured by the Biorad DC protein assay. Equal amounts of proteins were separated by MOPS-SDS-PAGE, then transferred to poly(vinylidene difluoride) membranes (Invitrogen, Carlsbad, Calif.). Membranes were then blocked and the signal detected with a BM Chemiluminescence Blotting kit (Roche Diagnostics, Basel, Switzerland), BM POD precipitating blotting substrate (Roche Diagnostics, Basel, Switzerland), or Supersignal West Femto blotting kit (Pierce, Rockford, Ill.) according to the manufacturer's instructions. For protein inter-subunit disulfide bond detection, cells were lysed in cell lysis buffer containing 200 mM N-ethyl-maleimide and incubated at 37° C. for 1 hr. LDS sample buffer with or without DTT was added to cell lysates, and proteins were separated by MOPS-SDS-PAGE. For indirect immunofluorescence studies, formaldehyde-fixed cells were permeablized with 0.3% Triton for 10 min, blocked with 1% BSA for 30 min, then detected with antibodies. Primary antibodies used in this study include monoclonal or polyclonal antibodies against CD98, PECAM, endoglin, vWF, PDI, pEGFR, EGFR, FGFR, and CD71 from Santa Cruz; against actin, from Sigma, St. Louis, Mo.; against pFGFR, pIGF1R, and IGF1R from Cell Signaling (Danvers, Mass.); against thioredoxin, MnSOD, catalase, and GAPDH from Abcam, Cambridge, Mass.; and against LOX-1 from Serotec, Raleigh, N.C. All secondary fluorescent-labeled or horseradish peroxidase-conjugated antibodies were obtained from Jackson Immunoresearch, West Grove, Pa.

[8] = tested on: HPAECs; test: mitochondrial membrane potential by JC-1 fluorescence; format: cell-based, human; conditions: after CCCP treatment, FIG. 5b
Experimental: Mitochondrial membrane potential measurement: Cells were incubated with medium containing 1 ug/ml JC-1 for […], washed with HBSS, and then observed by fluorescence microscopy immediately. Alternatively, fluorescence was measured with a GEMINI XPS microplate reader, with an excitation wavelength of 488 nm and an emission wavelength of 536 nm, as well as an excitation wavelength of 528 nm and an emission wavelength 590 nm. Mitochondrial membrane potential was expressed as the ratio of emission at 590 nm to that at 536 nm.

[9] = tested on: GRP78; test: ER stress marker induction, GRP78; format: cell-based; conditions: compared to tunicamycin and thapsigargin treatments
Experimental: as §4, with “Primary antibodies used in this study include monoclonal or polyclonal antibodies against CD98, PECAM, endoglin, vWF, PDI, pEGFR, EGFR, FGFR, and CD71 from Santa Cruz; against actin, from Sigma, St. Louis, Mo.; against pFGFR, pIGF1R, and IGF1R from Cell Signaling (Danvers, Mass.); against thioredoxin, MnSOD, catalase, and GAPDH from Abcam, Cambridge, Mass.; and against LOX-1 from Serotec, Raleigh, N.C. All secondary fluorescent-labeled or horseradish peroxidase-conjugated antibodies were obtained from Jackson Immunoresearch, West Grove, Pa.” left out

[10] = tested on: Endoglin; test: endoglin disulfide-dependent detection and localization in HPAECs; format: cell-based, human; conditions: non-reducing immunoblot; FIG. 1j
Experimental: as §4, with “Primary antibodies used in this study include monoclonal or polyclonal antibodies against CD98, PECAM, endoglin, vWF, PDI, pEGFR, EGFR, FGFR, and CD71 from Santa Cruz; against actin, from Sigma, St. Louis, Mo.; against pFGFR, pIGF1R, and IGF1R from Cell Signaling (Danvers, Mass.); against thioredoxin, MnSOD, catalase, and GAPDH from Abcam, Cambridge, Mass.; and against LOX-1 from Serotec, Raleigh, N.C. All secondary fluorescent-labeled or horseradish peroxidase-conjugated antibodies were obtained from Jackson Immunoresearch, West Grove, Pa.” left out

[11] = tested on: GRP94; test: ER stress marker induction, GRP94; format: cell-based; conditions: compared to tunicamycin and thapsigargin treatments
Experimental: as §4, with “Primary antibodies used in this study include monoclonal or polyclonal antibodies against CD98, PECAM, endoglin, vWF, PDI, pEGFR, EGFR, FGFR, and CD71 from Santa Cruz; against actin, from Sigma, St. Louis, Mo.; against pFGFR, pIGF1R, and IGF1R from Cell Signaling (Danvers, Mass.); against thioredoxin, MnSOD, catalase, and GAPDH from Abcam, Cambridge, Mass.; and against LOX-1 from Serotec, Raleigh, N.C. All secondary fluorescent-labeled or horseradish peroxidase-conjugated antibodies were obtained from Jackson Immunoresearch, West Grove, Pa.” left out

[12] = tested on: protein disulfides in Chang liver cells; test: in situ fluorescence imaging of cellular protein disulfides (Chang liver cells); format: cell-based; conditions: CCCP for 4 hr, FIG. 1a
Experimental: as §3

[13] = tested on: CD98; test: CD98 heterodimer blot in Chang liver cells; format: cell-based; conditions: mitochondrial inhibitor treated
Experimental: as §4, with “Primary antibodies used in this study include monoclonal or polyclonal antibodies against CD98, PECAM, endoglin, vWF, PDI, pEGFR, EGFR, FGFR, and CD71 from Santa Cruz; against actin, from Sigma, St. Louis, Mo.; against pFGFR, pIGF1R, and IGF1R from Cell Signaling (Danvers, Mass.); against thioredoxin, MnSOD, catalase, and GAPDH from Abcam, Cambridge, Mass.; and against LOX-1 from Serotec, Raleigh, N.C. All secondary fluorescent-labeled or horseradish peroxidase-conjugated antibodies were obtained from Jackson Immunoresearch, West Grove, Pa.” left out

## O[C@H](CS)[C@H](O)CS (racemic) [DTT, dithiothreitol]
[1]; 0.5 mM DTT, 30 min, flow cytometry
  uptake of EGF: did not change
[1]; in the presence of 0.5 mM DTT
  EGFR activation by EGF: fully activated
[2]
  phosphorylation of IGF-1Rβ: completely inhibited
[3]; 0.5 mM DTT, 30 min, flow cytometry, FIG. 8a
  uptake of AcLDL by HPAECs: decreased
[4]
  phosphorylation of FGFR: completely inhibited
[5]
  uptake of transferrin: did not change

## CCCCCC[C@H]1C(=O)O[C@H](C)[C@H](NC(=O)c2cccc(NC=O)c2O)C(=O)O[C@@H](C)[C@@H]1OC(=O)CC(C)C [ATM, antimycin A]
[6]
  protein disulfide formation: least effective

## CCCCS(=N)(=O)CCC(N)C(=O)O (stereo not shown) [BSO, buthionine sulfoximine]
[7]
  disulfide-linked multimeric vWF: increased

## N#CC(C#N)=NNc1cccc(Cl)c1 [CCCP, carbonylcyanide m-chlorophenylhydrazone]
[6]
  protein disulfide formation: decreased; also recorded: most effective
[6]; CCCP for 8 hrs, FIG. 4
  effect on protein disulfide formation in MitoCAT overexpressing cells: no longer had any effect
[8]
  mitochondrial membrane potential (MMP): immediate loss
[9]
  upregulation of GRP78: did not induce significant upregulation
[10]
  endoglin detected by P4A4 antibody: less endoglin was detected
[11]
  upregulation of GRP94: did not induce significant upregulation
[3]
  uptake of acetylated LDL (AcLDL) by HPAECs: decreased
[12]
  overall protein disulfide signal: decreased
[13]
  heterodimer CD98: remained intact
[7]
  disulfide-linked multimeric vWF: dissociation of disulfide-linked multimeric vWF

## C[C@]12CC[C@H](O)CC1=CC[C@@H]1[C@@H]2CC[C@]2(C)C(=O)CC[C@@H]12 [DHEA, dehydroepiandrosterone]
[7]
  disulfide-linked multimeric vWF: increased

## O=C(CC(=O)C(F)(F)F)c1cccs1 [TTFA, thienoyltrifluoroacetone]
[6]
  protein disulfide formation: decreased
[10]
  endoglin detected by P4A4 antibody: less endoglin was detected
[3]
  uptake of acetylated LDL (AcLDL) by HPAECs: decreased

## O=c1c2ccccc2[se]n1-c1ccccc1 [ebselen]
[6]; FIG. 1c, p<0.01, cell type not stated
  inhibition of disulfide formation: 55%

## CO/C(=C/C(N)=O)[C@H](C)[C@H](/C=C/c1csc(-c2csc([C@@H](C)/C=C/C=C/C(C)C)n2)n1)OC [myxothiazol]
[6]
  protein disulfide formation: decreased

## C=C(C)[C@H]1Cc2c(ccc3c2O[C@@H]2COc4cc(OC)c(OC)cc4[C@@H]2C3=O)O1 [rotenone]
[6]
  protein disulfide formation: decreased
